The values below come from ChEMBL document CHEMBL1777746, “1,5-Substituted nipecotic amides: selective PDE8 inhibitors displaying diastereomer-dependent microsomal stability” (Bioorg Med Chem Lett, 2011).

As a reminder, the pKa is the pH at which an ionisable group is half protonated. Higher therefore signals a weaker acid or stronger base. Broadly, the logD is the decadic logarithm of the distribution of all forms, ionised or not, between an organic phase and buffer at a given pH. The term half-life denotes how long it takes for the measured level to halve. Lower therefore signals rapid decline. What is called microsomal CLint is the rate of metabolic loss divided by the concentration. A lower microsomal CLint goes with slow turnover. For orientation: IC50 means the concentration that inhibits the measured activity by half. A word on the bioavailability: it is dose-corrected exposure relative to a reference, in per cent. A word on the clearance: it is the volume of plasma or blood freed of the substance per unit of time. Higher therefore signals a high capacity for elimination.

Data set [1] can be described thus: Dissociation constant, pKa of the compound. The format is physicochemical.
Data set [2] can be described thus: Lipophilicity, log D of the compound. To be noted: octanol/water. The format is physicochemical.
Data set [3] is described as follows: Half life in human liver microsomes. In kind it is ADME, Microsome.
A short description of data set [4]: Intrinsic clearance in human liver microsomes. In kind it is ADME, Microsome.
For data set [5], the target named is High affinity cAMP-specific and IBMX-insensitive 3',5'-cyclic phosphodiesterase 8B (Homo sapiens, UniProt O95263). The data set can be described thus: Inhibition of PDE8B.
Sequence of High affinity cAMP-specific and IBMX-insensitive 3',5'-cyclic phosphodiesterase 8B (O95263 whole entry): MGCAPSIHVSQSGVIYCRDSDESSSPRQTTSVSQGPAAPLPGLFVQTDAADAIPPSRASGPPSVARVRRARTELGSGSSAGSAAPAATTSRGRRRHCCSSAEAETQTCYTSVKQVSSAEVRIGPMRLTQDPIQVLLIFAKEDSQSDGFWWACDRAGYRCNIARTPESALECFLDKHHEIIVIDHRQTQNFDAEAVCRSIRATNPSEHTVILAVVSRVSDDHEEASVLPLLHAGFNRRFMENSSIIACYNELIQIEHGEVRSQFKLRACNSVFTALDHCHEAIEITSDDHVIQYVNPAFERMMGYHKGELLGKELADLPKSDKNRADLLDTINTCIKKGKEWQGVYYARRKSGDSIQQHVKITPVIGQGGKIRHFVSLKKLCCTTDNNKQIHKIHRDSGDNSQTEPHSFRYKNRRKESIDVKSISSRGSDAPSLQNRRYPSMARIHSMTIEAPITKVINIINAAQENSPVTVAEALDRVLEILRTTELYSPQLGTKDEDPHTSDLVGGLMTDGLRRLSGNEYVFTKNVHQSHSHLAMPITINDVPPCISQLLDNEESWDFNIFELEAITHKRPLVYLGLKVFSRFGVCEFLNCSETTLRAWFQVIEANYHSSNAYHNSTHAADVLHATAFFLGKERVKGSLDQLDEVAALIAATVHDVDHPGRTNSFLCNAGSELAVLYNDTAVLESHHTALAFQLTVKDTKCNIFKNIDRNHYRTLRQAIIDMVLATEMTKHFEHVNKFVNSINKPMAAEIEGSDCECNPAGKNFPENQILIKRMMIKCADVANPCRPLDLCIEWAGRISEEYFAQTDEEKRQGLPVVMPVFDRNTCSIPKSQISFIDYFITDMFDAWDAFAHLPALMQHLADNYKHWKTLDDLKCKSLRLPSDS
Data set [6] is described as follows: Volume of distribution at steady state in rat. The format is ADME, organism-based. Conditions: in vivo, read-out: Vdss.
Data set [7] is described as follows: Oral bioavailability in rat. In kind it is ADME, organism-based. To be noted: in vivo.
Data set [8] can be described thus: Clearance in rat. The format is ADME, organism-based. Conditions: in vivo.

Where only a bound is given, the exact number is not on record here.

Regarding `COCC1CC(C(=O)NC[C@H]2CCCO2)CN(Cc2nc(N3CCOCC3)oc2C)C1` (stereo not given in full), the pKa in data set [1] is 7.2. The logD in data set [2] came to 1; in data set [2] (read-out: logD), 0.8.

Turning to `Cc1cccc(CNC(=O)C2CCCN(Cc3nc(-c4ccccc4)oc3C)C2)n1` (stereo not given), in data set [3], the half-life was 5.76 min. This compound also yielded an intrinsic clearance (microsomal CLint) in data set [4] of 158 µL/min/mg.

`Cc1cccc(CNC(=O)C2CN(Cc3nc(-c4ccccc4)oc3C)CCO2)n1` (stereo not given): the IC50 in data set [5] is above 10 µM.

Consider `Cc1cccc(CNC(=O)[C@@H]2CCN(Cc3nc(-c4ccccc4)oc3C)C2)n1`, for which, in data set [5], the 50% inhibitory concentration (IC50) was above 10 µM.

`CC[C@@H]1C[C@@H](C(=O)NCc2cccc(C)n2)CN(Cc2nc(-c3ccccc3)oc2C)C1`: the Vd in data set [6] came out at 1.4 L/kg. Also, the bioavailability in data set [7] came out at 7%. Also, in data set [8], the clearance is 98 mL/min/kg.

Regarding `CC[C@@H]1C[C@@H](C(=O)NCC2CCOCC2)CN(Cc2nc(-c3ccccc3)oc2C)C1`, the half-life in data set [3] is below 3 min. In data set [4], this compound gave a microsomal CLint of 320 µL/min/mg.

Compound `COC[C@@H]1C[C@@H](C(=O)NCC2CCOCC2)CN(Cc2nc(-c3ccccc3)oc2C)C1` returned a half-life in data set [3] of 4.09 min. For the same compound, in data set [4], the microsomal CLint turned out to be 239 µL/min/mg.

`CC[C@@H]1C[C@@H](C(=O)NCc2cccc(N)n2)CN(Cc2nc(N3CCOCC3)oc2C)C1` displayed a half-life in data set [3] of 8.9 min. Moreover, the microsomal CLint in data set [4] came out at 110 µL/min/mg.

In data set [3], `COC[C@@H]1C[C@@H](C(=O)NCC2CCOCC2)CN(Cc2[nH]c(-c3ccncn3)nc2C)C1` gave a half-life of 15.5 min. The same compound gave an intrinsic clearance (microsomal CLint) in data set [4] of 63 µL/min/mg.

As to `COC[C@@H]1C[C@@H](C(=O)NC[C@H]2CCCO2)CN(Cc2nc(N3CCOCC3)oc2C)C1`, the half-life in data set [3] worked out at 23.7 min. The compound also came in with a microsomal CLint in data set [4] of 41 µL/min/mg.

`Cc1cccc(CNC(=O)[C@@H]2C[C@@H](c3nc(C)no3)CN(Cc3nc(-c4ccccc4)oc3C)C2)n1`: in data set [4], the intrinsic clearance (microsomal CLint) came out at 105 µL/min/mg.

`CC[C@@H]1C[C@@H](C(=O)NC[C@H]2CCCO2)CN(Cc2nc(-c3ccncn3)[nH]c2C)C1` displayed a microsomal CLint in data set [4] of 190 µL/min/mg.

`Cc1oc(-c2ccccc2)nc1CN1CCC[C@@H](C(=O)NCc2cccc(N)n2)C1`: the half-life in data set [3] was 20.5 min. The intrinsic metabolic clearance (microsomal CLint) in data set [4] was determined as 49 µL/min/mg.

On to `Cc1oc(-c2ccccc2)nc1CN1CCC[C@@H](C(=O)NC[C@H]2CCCO2)C1`, for which, in data set [3], the half-life turned out to be 11.6 min. The microsomal CLint in data set [4] amounted to 84 µL/min/mg.

In data set [4], `Cc1cccc(CNC(=O)[C@@H]2C[C@@H](c3nnc(C)o3)CN(Cc3nc(-c4ccccc4)oc3C)C2)n1` came in with a microsomal CLint of 290 µL/min/mg.

As to `Cc1oc(-c2ccccc2)nc1CN1C[C@H](C(=O)NCc2cccc(N)n2)C[C@@H](c2ccccc2)C1`, the intrinsic metabolic clearance (microsomal CLint) in data set [4] is above 300 µL/min/mg.

Take `CC[C@H]1C[C@@H](C(=O)NCc2cccc(C)n2)CN(Cc2nc(-c3ccccc3)oc2C)C1`: in data set [3], the half-life is 7.71 min. This compound also came in with an intrinsic clearance (microsomal CLint) in data set [4] of 118 µL/min/mg.

For `CC[C@H]1C[C@H](C(=O)NCc2cccc(C)n2)CN(Cc2nc(-c3ccccc3)oc2C)C1`, in data set [3], the half-life turned out to be 3 min. The intrinsic metabolic clearance (microsomal CLint) in data set [4] was found to be 304 µL/min/mg.

In data set [3], `COC[C@H]1C[C@H](C(=O)NCc2cccc(C)n2)CN(Cc2nc(-c3ccccc3)oc2C)C1` showed a half-life below 3 min. In addition, the microsomal CLint in data set [4] came to 304 µL/min/mg.

`COC[C@H]1C[C@@H](C(=O)NCc2cccc(C)n2)CN(Cc2nc(-c3ccccc3)oc2C)C1` returned a half-life in data set [3] of 9.17 min. Moreover, the intrinsic clearance (microsomal CLint) in data set [4] worked out at 99.5 µL/min/mg.

Consider `Cc1oc(-c2ccccc2)nc1CN1CCCC(C(=O)NCC2CCOCC2)C1` (stereo not given), for which the half-life in data set [3] was 9.34 min. In data set [4], this compound registered an intrinsic clearance (microsomal CLint) of 105 µL/min/mg.

With `Cc1cccc(CNC(=O)[C@H]2C[C@H](c3nc(C)no3)CN(Cc3nc(-c4ccccc4)oc3C)C2)n1`, the half-life in data set [3] is below 3 min. The same compound showed an intrinsic clearance (microsomal CLint) in data set [4] of 290 µL/min/mg.

On to `Cc1cccc(CNC(=O)[C@H]2C[C@H](c3nnc(C)o3)CN(Cc3nc(-c4ccccc4)oc3C)C2)n1`, for which the half-life in data set [3] was below 3 min. Moreover, the intrinsic clearance (microsomal CLint) in data set [4] came out at 290 µL/min/mg.

For `CC[C@@H]1C[C@@H](C(=O)NC[C@@H]2CCCO2)CN(Cc2nc(-c3ccccc3)oc2C)C1`, the half-life in data set [3] was below 3 min. In data set [4], the microsomal CLint turned out to be 320 µL/min/mg.

In the case of `Cc1noc([C@@H]2C[C@@H](C(=O)NC[C@@H]3CCCO3)CN(Cc3nc(-c4ccccc4)oc3C)C2)n1`, the half-life in data set [3] was 5.68 min. The compound further returned a microsomal CLint in data set [4] of 182 µL/min/mg.

In the case of `CC[C@@H]1C[C@@H](C(=O)NC[C@@H]2CCCO2)CN(Cc2[nH]c(-c3ccncn3)nc2C)C1`, in data set [3], the half-life was 5 min. The microsomal CLint in data set [4] is 195 µL/min/mg.

`COC[C@@H]1C[C@@H](C(=O)NC[C@H]2CCCO2)CN(Cc2nc(-c3ccccc3)oc2C)C1` gave a half-life in data set [3] of 4.2 min. The microsomal CLint in data set [4] amounted to 233 µL/min/mg.

`COC[C@H]1C[C@@H](C(=O)NC[C@H]2CCCO2)CN(Cc2nc(-c3ccccc3)oc2C)C1` registered a half-life in data set [3] of 24.2 min. Moreover, the intrinsic metabolic clearance (microsomal CLint) in data set [4] stood at 40.3 µL/min/mg.

For `COC[C@H]1C[C@@H](C(=O)NC[C@H]2CCCO2)CN(Cc2nc(N3CCOCC3)oc2C)C1`, the half-life in data set [3] was above 120 min. This compound had an intrinsic clearance (microsomal CLint) in data set [4] below 8 µL/min/mg.

Turning to `CC[C@@H]1C[C@@H](C(=O)NC[C@@H]2CCCO2)CN(Cc2nc(N3CCOCC3)oc2C)C1`, in data set [3], the half-life worked out at 7.45 min. For the same compound, the intrinsic clearance (microsomal CLint) in data set [4] is 131 µL/min/mg.

In data set [3], `CC[C@H]1C[C@@H](C(=O)NC[C@@H]2CCCO2)CN(Cc2nc(N3CCOCC3)oc2C)C1` had a half-life of 51.7 min. Also, in data set [4], the intrinsic metabolic clearance (microsomal CLint) came to 18.9 µL/min/mg.

With `CC[C@H]1C[C@@H](C(=O)NCc2cccc(N)n2)CN(Cc2nc(N3CCOCC3)oc2C)C1`, the half-life in data set [3] worked out at 31.1 min. Moreover, the intrinsic clearance (microsomal CLint) in data set [4] turned out to be 31.4 µL/min/mg.

Consider `CC[C@@H]1C[C@@H](C(=O)NCc2cccc(N)n2)CN(Cc2nc(-c3ccccc3)oc2C)C1`, for which the half-life in data set [3] was determined as 3.47 min. In data set [4], this compound registered an intrinsic metabolic clearance (microsomal CLint) of 281 µL/min/mg.

Turning to `CC[C@@H]1C[C@@H](C(=O)NCC2CCOCC2)CN(Cc2nc(N3CCOCC3)oc2C)C1`, in data set [3], the half-life came to 6.88 min. Further, the microsomal CLint in data set [4] is 142 µL/min/mg.

Regarding `CC[C@H]1C[C@@H](C(=O)NCC2CCOCC2)CN(Cc2nc(N3CCOCC3)oc2C)C1`, the half-life in data set [3] worked out at 24.1 min. This compound also had a microsomal CLint in data set [4] of 40.6 µL/min/mg.

`CC[C@H]1C[C@@H](C(=O)NCC2CCOCC2)CN(Cc2nc(-c3ccccc3)oc2C)C1` returned a half-life in data set [3] of 4.32 min. Further, the microsomal CLint in data set [4] came to 226 µL/min/mg.

In the case of `Cc1oc(-c2ccccc2)nc1CN1CCC[C@@H](C(=O)NC[C@@H]2CCCO2)C1`, the half-life in data set [3] is 14.1 min. The compound further gave an intrinsic metabolic clearance (microsomal CLint) in data set [4] of 69.1 µL/min/mg.

Take `CC[C@@H]1C[C@@H](C(=O)NC[C@H]2CCCO2)CN(Cc2nc(-c3ccccc3)oc2C)C1`: the half-life in data set [3] is below 3 min. Moreover, the microsomal CLint in data set [4] was above 320 µL/min/mg.

As for `CC[C@H]1C[C@@H](C(=O)NC[C@H]2CCCO2)CN(Cc2nc(-c3ccccc3)oc2C)C1`, the half-life in data set [3] stood at 8.15 min. Further, the microsomal CLint in data set [4] was 120 µL/min/mg.

Turning to `COC[C@@H]1C[C@@H](C(=O)NCC2CCOCC2)CN(Cc2nc(N3CCOCC3)oc2C)C1`, the half-life in data set [3] is 30.8 min. The compound also displayed a microsomal CLint in data set [4] of 31.7 µL/min/mg.

With `COC[C@H]1C[C@@H](C(=O)NCC2CCOCC2)CN(Cc2nc(N3CCOCC3)oc2C)C1`, in data set [3], the half-life turned out to be 50.7 min. The same compound displayed a microsomal CLint in data set [4] of 19.3 µL/min/mg.

In the case of `COC[C@H]1C[C@@H](C(=O)NCC2CCOCC2)CN(Cc2nc(-c3ccncn3)[nH]c2C)C1`, in data set [3], the half-life came out at 49.2 min. The same compound showed a microsomal CLint in data set [4] of 19.9 µL/min/mg.
